Experiments:
proteasomes = proteasomes (Homo sapiens, UniProt P28074); assay: Lactacystin activity on proteasomes, LLVY-aminoluciferin luminescence with DTT; assay type: biochemical; conditions: at 20 μM, with DTT included (FIG. 2A)
Procedure: (§1) After a 0.5 hour preincubation in 25 mM HEPES/0.5 mM EDTA/1 mM DTT, a 2×reagent was added (20 μM LLVY-aminoluciferin (SEQ ID NO:1)/3 mM CaCL2/10 mM MgSO4).

calpain I = molecular target: T1, calpain I (Homo sapiens, UniProt P07384); assay: Lactacystin activity on purified calpain, LLVY-aminoluciferin luminescence; assay type: biochemical; conditions: 0.5 hour preincubation, calcium present (FIG. 2A)
T1 sequence (P07384 1-714): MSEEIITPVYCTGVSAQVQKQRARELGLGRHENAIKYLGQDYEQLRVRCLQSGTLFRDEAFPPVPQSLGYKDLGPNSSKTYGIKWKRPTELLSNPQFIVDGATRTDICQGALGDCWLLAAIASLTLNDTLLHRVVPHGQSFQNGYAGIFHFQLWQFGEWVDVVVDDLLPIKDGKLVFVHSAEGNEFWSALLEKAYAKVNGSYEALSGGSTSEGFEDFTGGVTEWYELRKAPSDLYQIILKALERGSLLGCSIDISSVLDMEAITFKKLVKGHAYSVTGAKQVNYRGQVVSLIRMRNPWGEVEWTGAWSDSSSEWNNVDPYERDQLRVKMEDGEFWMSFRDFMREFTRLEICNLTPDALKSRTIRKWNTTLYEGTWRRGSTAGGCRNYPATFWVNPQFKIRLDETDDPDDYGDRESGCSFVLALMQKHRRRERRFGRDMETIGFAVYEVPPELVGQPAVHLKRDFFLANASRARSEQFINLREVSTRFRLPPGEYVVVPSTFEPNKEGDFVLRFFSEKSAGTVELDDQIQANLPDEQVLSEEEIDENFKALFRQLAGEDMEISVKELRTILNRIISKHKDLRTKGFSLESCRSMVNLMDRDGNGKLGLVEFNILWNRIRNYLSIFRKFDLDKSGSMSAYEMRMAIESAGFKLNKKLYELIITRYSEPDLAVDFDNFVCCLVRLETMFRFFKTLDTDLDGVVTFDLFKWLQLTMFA
T1 sequence (P04632 1-268 partner): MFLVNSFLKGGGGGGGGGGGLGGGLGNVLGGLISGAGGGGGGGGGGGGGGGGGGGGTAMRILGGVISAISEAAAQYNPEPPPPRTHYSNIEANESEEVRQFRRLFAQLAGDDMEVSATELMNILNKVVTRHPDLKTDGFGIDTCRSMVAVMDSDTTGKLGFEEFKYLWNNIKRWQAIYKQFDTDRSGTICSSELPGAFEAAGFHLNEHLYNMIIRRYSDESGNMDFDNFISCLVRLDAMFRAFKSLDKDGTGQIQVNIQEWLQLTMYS
Procedure: as §1

U937 cells = assay: ATP content (viability), CellTiter-Glo; assay type: cell-based; conditions: 1.5 hours treatment, concentrations tested
Description: (§2) Cell viability measurements were made using CellTiter Glo (Promega Corp.) in a parallel series of samples to confirm that viability was not affected by lactacystin treatment.

HL-60 cells = assay: ATP content (viability), CellTiter-Glo; assay type: cell-based; conditions: 1.5 hours treatment, concentrations tested
Description: as §2

[1] = test system: proteasome activities in Jurkat cells; assay: Cell-based luminescent proteasome assay in Jurkat cells; conditions: 1.5 hours inhibitor exposure
Procedure: FIG. 3. Luminescence versus proteasome inhibitor concentration in Jurkat cells. Jurkatt cells were exposed to inhibitor (AdaAhxL3VS) for 1.5 hours and then contacted with LLVY-aminoluciferin (final concentration of 10 μM; SEQ ID NO:1).
NCI-H226 cells (ATCC #CRL-5826) were maintained as an attached line using RPMI 1640 (Sigma #R-8005) with 10% fetal bovine serum (Hyclone # SH30070) and passaged as needed. Jurkat, HL-60 and U937 suspension cell lines were likewise maintained and passaged. To prepare cells for a cell-based proteasome assay, adherent cells were harvested from the parent flask by removing medium, rinsing the flask with D-PBS and incubated with trypsin-EDTA (Sigma T-4040) for 3 to 4 minutes at 37° C. The trypsin reaction was stopped by adding complete medium containing serum, and cells were then centrifuged 4 minutes at 200×G. The cell pellet was suspended in fresh medium, cells counted by trypan blue exclusion and adjusted to 1.11×10^5 cells/ml. […]
For instance, one vial of V859A (Luciferin Detection Reagent) is suspended with 10 ml of buffer to which 50 to 100 μl of substrate is added, and 100 μl of cells are combined with 100 μl of substrate containing reagent. […] This pre-incubation depletes the free aminoluciferin present in the substrate, thereby reducing potential background luminescence. […]

U266 cells = assay: Toxicity of proteasome inhibitor incubation to cells; assay type: cell-based

Row | inhibition of the proteasome (proteasomes) | effect on calpain I (calpain I) | Compound | cell viability (ATP assay, CellTiterGlo) (U937 cells) | cell viability (ATP assay, CellTiterGlo) (HL-60 cells) | chymotrypsin-like, trypsin-like and caspase-like proteasome activities [1] | toxicity to the cells, short incubations (U266 cells; incubation for 1 to 2 hours) | toxicity to the cells, longer incubation times (U266 cells; longer incubation times)
1 | incomplete inhibition | minimal effect | CC(=O)N[C@@H](CSC(=O)[C@]1([C@@H](O)C(C)C)NC(=O)[C@H](C)[C@@H]1O)C(=O)O [lactacystin] | did not kill the cells | did not kill the cells | – | – | –
2 | – | – | CC(C)CC(C=CS(C)(=O)=O)NC(=O)[C@H](CC(C)C)NC(=O)[C@H](CC(C)C)NC(=O)CCCCCNC(=O)CCCCCNC(=O)CCCCCNC(=O)CC12CC3CC(CC(C3)C1)C2 (stereo partly shown) [AdaAhx3L3VS, adamantane-acetyl-(6-aminohexanoyl)3-(leucinyl)3-vinyl-(methyl)-sulfone] | – | – | blocked all three activities | not toxic | induced apoptosis
